Data taken from patent US20080009418A1, “Selective Inhibitors” (Alchemia LTD., priority 2004, published 2008).

What was measured:
Human δ-opioid (DOP) = target: T1, Human δ-opioid (DOP) (Homo sapiens, UniProt P41143); experiment: Radioligand binding, human δ-opioid (DOP) membranes, FlashPlate, [3H]-Bremazocine; details: compound at 10 μM; [3H]-Bremazocine, FlashPlate
T1 construct: purchased Perkin Elmer Biosignal
Method in brief: (§1)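 Cloned human receptor membranes were coated onto FlashPlate wells and incubated with radioligand and compound (added from a 0.5 mM DMSO daughter plate) for 1 hour at room temperature in the dark. Scintillation counting gave percent inhibition, with DMSO defining total and reference ligand defining non-specific binding.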

Human κ-Opioid (KOP) = target: T2, Human κ-Opioid (KOP) (Homo sapiens, UniProt P41145); experiment: Radioligand binding, human κ-opioid (KOP) membranes, filtration, [3H]-Diprenorphine; details: compound at 10 μM; [3H]-Diprenorphine, filtration
T2 construct: purchased Perkin Elmer Biosignal
T2 sequence (P41145 whole entry): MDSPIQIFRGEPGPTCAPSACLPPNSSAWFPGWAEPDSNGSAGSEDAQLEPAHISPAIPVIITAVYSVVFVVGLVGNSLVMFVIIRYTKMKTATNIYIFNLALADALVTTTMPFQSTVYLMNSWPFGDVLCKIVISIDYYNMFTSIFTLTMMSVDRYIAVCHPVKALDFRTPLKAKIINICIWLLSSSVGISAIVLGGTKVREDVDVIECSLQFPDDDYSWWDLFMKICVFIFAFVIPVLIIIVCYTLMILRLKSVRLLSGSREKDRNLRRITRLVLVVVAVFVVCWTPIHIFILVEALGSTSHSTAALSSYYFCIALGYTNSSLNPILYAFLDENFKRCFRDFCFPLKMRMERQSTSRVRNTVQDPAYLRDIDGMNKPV
Method in brief: (§2)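 Membranes from cloned human receptors were incubated with compound and radioligand for 1 hour at room temperature. Bound ligand was collected on 0.3% PEI-soaked filters, washed with cold 50 mM Tris-HCl pH 7.4, and counted by scintillation. Percent inhibition was computed against DMSO totals and reference-ligand nonspecific wells.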

Human Melanocortin (MC3) = target: T3, Human Melanocortin (MC3) (Homo sapiens, UniProt P41968); experiment: Radioligand binding, human melanocortin MC3 membranes, FlashPlate, [125I]-NDP-αMSH; details: compound at 10 μM; [125I]-NDP-αMSH, FlashPlate
T3 construct: purchased Perkin Elmer Biosignal
T3 sequence (P41968 whole entry): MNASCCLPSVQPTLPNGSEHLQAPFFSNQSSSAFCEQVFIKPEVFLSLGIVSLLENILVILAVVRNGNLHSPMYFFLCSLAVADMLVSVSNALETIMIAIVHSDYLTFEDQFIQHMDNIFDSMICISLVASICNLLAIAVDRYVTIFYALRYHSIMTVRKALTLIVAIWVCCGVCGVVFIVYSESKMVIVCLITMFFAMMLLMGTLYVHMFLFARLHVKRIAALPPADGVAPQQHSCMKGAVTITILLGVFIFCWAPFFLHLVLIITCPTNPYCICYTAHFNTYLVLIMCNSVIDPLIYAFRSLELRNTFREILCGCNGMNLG
Method in brief: as §1

Human Melanocortin (MC4) = target: T4, Human Melanocortin (MC4) (Homo sapiens, UniProt P32245); experiment: Radioligand binding, human melanocortin MC4 membranes, FlashPlate, [125I]-NDP-αMSH; details: compound at 10 μM; [125I]-NDP-αMSH, FlashPlate
T4 construct: purchased Perkin Elmer Biosignal
T4 sequence (P32245 whole entry): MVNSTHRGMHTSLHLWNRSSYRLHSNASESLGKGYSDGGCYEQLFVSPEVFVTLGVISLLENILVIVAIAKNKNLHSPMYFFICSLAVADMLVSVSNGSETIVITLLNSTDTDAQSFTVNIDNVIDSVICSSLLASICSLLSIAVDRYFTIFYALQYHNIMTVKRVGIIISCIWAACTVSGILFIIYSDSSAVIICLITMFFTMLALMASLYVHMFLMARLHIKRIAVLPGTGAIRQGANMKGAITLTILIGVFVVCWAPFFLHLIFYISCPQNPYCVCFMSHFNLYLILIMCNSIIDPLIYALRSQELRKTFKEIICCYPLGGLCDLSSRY
Method in brief: as §1

Human melanocortin (MC5) = target: T5, Human melanocortin (MC5) (Homo sapiens, UniProt P33032); experiment: Radioligand binding, human melanocortin MC5 membranes, FlashPlate, [125I]-NDP-αMSH; details: compound at 10 μM; [125I]-NDP-αMSH, FlashPlate
T5 construct: purchased Perkin Elmer Biosignal
T5 sequence (P33032 whole entry): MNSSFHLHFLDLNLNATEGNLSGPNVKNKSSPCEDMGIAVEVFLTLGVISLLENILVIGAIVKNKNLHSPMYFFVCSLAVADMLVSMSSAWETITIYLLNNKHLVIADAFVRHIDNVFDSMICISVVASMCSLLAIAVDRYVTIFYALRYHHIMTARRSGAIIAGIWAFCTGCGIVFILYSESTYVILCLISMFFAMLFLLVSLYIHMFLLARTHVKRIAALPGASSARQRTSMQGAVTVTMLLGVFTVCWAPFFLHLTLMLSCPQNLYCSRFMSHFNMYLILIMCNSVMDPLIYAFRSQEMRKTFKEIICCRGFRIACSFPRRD
Method in brief: as §1

[1] = target: T6, Human melanin-concentrating hormone (MCH1) (Homo sapiens, UniProt Q99705); experiment: Radioligand binding, human melanin-concentrating hormone MCH1 membranes, FlashPlate, [125I]-S36057; details: compound at 10 μM; [125I]-S36057, FlashPlate
T6 construct: purchased Perkin Elmer Biosignal
T6 sequence (Q99705 whole entry): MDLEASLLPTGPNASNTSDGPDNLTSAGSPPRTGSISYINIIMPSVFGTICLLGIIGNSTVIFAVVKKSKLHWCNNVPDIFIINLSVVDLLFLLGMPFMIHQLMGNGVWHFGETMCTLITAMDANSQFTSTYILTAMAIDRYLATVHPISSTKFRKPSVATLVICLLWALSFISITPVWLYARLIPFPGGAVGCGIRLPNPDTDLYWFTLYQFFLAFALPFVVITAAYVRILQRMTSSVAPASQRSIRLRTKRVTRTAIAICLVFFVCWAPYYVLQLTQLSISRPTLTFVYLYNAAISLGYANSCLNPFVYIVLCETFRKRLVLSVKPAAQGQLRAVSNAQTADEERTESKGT
Method in brief: as §1

Human μ-opioid (MOP) = target: T7, Human μ-opioid (MOP) (Homo sapiens, UniProt P35372); experiment: Radioligand binding, human μ-opioid (MOP) membranes, FlashPlate, [3H]-Naloxone; details: compound at 10 μM; [3H]-Naloxone, FlashPlate
T7 construct: purchased Perkin Elmer Biosignal
T7 sequence (P35372 whole entry): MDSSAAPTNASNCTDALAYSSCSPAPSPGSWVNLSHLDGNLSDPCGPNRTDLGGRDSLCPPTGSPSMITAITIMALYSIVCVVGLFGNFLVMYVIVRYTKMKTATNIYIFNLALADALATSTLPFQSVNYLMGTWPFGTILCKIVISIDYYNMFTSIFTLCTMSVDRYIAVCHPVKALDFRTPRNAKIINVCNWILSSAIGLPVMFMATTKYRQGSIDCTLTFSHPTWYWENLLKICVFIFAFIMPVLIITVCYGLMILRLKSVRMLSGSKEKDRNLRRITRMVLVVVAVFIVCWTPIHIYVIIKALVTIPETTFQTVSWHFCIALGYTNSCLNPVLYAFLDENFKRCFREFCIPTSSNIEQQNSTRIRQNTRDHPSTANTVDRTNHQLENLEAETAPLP
Method in brief: as §1

Human neurokinin (NK1) = target: T8, Human neurokinin (NK1) (Homo sapiens, UniProt P25103); experiment: Radioligand binding, human neurokinin NK1 membranes, filtration, [125I]-Substance P; details: compound at 10 μM; [125I]-Substance P, filtration
T8 construct: purchased Perkin Elmer Biosignal
T8 sequence (P25103 whole entry): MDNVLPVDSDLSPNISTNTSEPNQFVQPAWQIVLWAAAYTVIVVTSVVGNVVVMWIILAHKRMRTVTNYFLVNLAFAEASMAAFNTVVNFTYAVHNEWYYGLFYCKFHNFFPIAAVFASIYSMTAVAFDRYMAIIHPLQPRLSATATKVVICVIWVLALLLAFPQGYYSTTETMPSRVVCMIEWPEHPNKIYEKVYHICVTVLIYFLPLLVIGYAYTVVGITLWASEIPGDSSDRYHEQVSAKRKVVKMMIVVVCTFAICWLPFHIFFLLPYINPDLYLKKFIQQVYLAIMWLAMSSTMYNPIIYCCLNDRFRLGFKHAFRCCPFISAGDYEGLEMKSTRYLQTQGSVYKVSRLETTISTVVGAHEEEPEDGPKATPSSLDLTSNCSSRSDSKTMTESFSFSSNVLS
Method in brief: as §2

[2] = target: T9, Human neuropeptide Y (NPY-Y1) (Homo sapiens, UniProt P25929); experiment: Radioligand binding, human neuropeptide Y NPY-Y1 membranes, FlashPlate, [125I]-PYY; details: compound at 10 μM; [125I]-PYY, FlashPlate
T9 construct: purchased Perkin Elmer Biosignal
T9 sequence (P25929 1-384): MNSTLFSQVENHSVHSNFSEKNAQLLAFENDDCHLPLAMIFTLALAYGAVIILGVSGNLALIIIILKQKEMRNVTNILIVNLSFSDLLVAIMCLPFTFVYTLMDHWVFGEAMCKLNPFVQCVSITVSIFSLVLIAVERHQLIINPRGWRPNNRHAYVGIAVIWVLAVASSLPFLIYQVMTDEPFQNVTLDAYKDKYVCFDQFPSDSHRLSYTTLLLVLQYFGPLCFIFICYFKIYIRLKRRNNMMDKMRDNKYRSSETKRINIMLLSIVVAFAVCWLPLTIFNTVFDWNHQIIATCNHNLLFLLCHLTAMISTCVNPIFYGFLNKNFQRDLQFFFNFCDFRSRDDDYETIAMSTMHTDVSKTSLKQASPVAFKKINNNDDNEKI
Method in brief: as §1

Human opioid (ORL1) = target: T10, Human opioid (ORL1) (Homo sapiens, UniProt P41146); experiment: Radioligand binding, human opioid ORL1 membranes, FlashPlate, [125I]-Nociceptin; details: compound at 10 μM; [125I]-Nociceptin, FlashPlate
T10 construct: purchased Perkin Elmer Biosignal
T10 sequence (P41146 whole entry): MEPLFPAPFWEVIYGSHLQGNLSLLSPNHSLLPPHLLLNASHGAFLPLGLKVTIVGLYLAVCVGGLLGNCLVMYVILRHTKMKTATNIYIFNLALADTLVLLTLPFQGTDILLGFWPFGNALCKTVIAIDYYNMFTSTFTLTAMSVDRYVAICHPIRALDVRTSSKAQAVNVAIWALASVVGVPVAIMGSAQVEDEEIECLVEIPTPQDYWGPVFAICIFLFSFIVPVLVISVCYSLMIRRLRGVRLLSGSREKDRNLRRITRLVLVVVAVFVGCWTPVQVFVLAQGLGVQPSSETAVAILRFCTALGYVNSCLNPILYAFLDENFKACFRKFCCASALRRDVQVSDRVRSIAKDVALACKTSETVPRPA
Method in brief: as §1

Mouse urotensin (mUR2) = target: T11, Mouse urotensin (mUR2) (Mus musculus, UniProt Q8VIH9); experiment: Radioligand binding, mouse urotensin mUR2 membranes, FlashPlate, [125I]-Urotensin II; details: compound at 10 μM; [125I]-Urotensin II, FlashPlate
T11 construct: purchased Perkin Elmer Biosignal
T11 sequence (Q8VIH9 1-385): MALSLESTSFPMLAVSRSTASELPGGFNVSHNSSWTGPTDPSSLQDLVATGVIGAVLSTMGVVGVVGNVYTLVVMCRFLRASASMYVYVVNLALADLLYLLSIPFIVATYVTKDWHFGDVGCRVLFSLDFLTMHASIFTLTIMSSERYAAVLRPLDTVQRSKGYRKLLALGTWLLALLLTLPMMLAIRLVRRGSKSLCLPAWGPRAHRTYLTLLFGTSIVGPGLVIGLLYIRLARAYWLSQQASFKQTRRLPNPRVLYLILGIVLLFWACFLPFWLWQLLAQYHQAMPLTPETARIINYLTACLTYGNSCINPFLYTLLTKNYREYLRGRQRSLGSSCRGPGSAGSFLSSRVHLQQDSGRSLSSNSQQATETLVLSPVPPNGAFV
Method in brief: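 Cloned mouse urotensin (mUR2) receptor membranes from Perkin Elmer Biosignal were immobilized in FlashPlate microplates using a proprietary coating. Each well got 19.5 μl buffer, then 0.5 μl of DMSO, reference ligand, or compound. Adding 5 μl of [125I]-Urotensin II, diluted to 5× final concentration in binding buffer, started binding. Plates were sealed with TopSeal-A and incubated 1 hour at room temperature in the dark. Wells were counted for 30 seconds each on a TopCount after a 60-second delay, and percentage inhibition was calculated.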

T1 sequence (P41143 whole entry): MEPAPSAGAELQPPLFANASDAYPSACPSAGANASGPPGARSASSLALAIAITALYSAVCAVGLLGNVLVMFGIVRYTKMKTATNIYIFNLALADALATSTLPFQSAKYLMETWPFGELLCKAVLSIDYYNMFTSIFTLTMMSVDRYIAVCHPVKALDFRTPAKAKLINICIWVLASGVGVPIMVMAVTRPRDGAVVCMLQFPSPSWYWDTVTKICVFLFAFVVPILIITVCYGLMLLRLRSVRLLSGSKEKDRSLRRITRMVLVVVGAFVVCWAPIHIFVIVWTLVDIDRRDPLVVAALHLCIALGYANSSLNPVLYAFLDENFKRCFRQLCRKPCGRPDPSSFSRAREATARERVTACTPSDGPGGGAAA

Structure (SMILES)	A1: inhibition of radioligand binding (Human δ-opioid (DOP))	A2: inhibition of radioligand binding (Human κ-Opioid (KOP))	A3: inhibition of radioligand binding (Human Melanocortin (MC3))	A4: inhibition of radioligand binding (Human Melanocortin (MC4))	A5: inhibition of radioligand binding (Human melanocortin (MC5))	A6: inhibition of radioligand binding [1]	A7: inhibition of radioligand binding (Human μ-opioid (MOP))	A8: inhibition of radioligand binding (Human neurokinin (NK1))	A9: inhibition of radioligand binding [2]	A10: inhibition of radioligand binding (Human opioid (ORL1))	A11: inhibition of radioligand binding (Mouse urotensin (mUR2))
COCC1OC(OCCc2ccccc2)C(NC(=O)CCCNC(=N)N)C(OCc2ccc(Cl)cc2)C1O (stereo not drawn) [compound 223]	− (“−” indicates less than 50% inhibition at 10 μM)	− (“−” indicates less than 50% inhibition at 10 μM)	− (“−” indicates less than 50% inhibition at 10 μM)	+ (“+” indicates greater than 50% inhibition at 10 μM)	+ (“+” indicates greater than 50% inhibition at 10 μM)	+ (“+” indicates greater than 50% inhibition at 10 μM)	− (“−” indicates less than 50% inhibition at 10 μM)	+ (“+” indicates greater than 50% inhibition at 10 μM)	− (“−” indicates less than 50% inhibition at 10 μM)	− (“−” indicates less than 50% inhibition at 10 μM)	− (“−” indicates less than 50% inhibition at 10 μM)
COCC1OC(OCCc2ccccc2)C(NC(=O)CN)C(OCc2ccc(-c3ccccc3)cc2)C1O (stereo not drawn) [compound 224]	− (“−” indicates less than 50% inhibition at 10 μM)	− (“−” indicates less than 50% inhibition at 10 μM)	− (“−” indicates less than 50% inhibition at 10 μM)	− (“−” indicates less than 50% inhibition at 10 μM)	− (“−” indicates less than 50% inhibition at 10 μM)	− (“−” indicates less than 50% inhibition at 10 μM)	− (“−” indicates less than 50% inhibition at 10 μM)	+ (“+” indicates greater than 50% inhibition at 10 μM)	− (“−” indicates less than 50% inhibition at 10 μM)	− (“−” indicates less than 50% inhibition at 10 μM)	− (“−” indicates less than 50% inhibition at 10 μM)
COCC1OC(OCCc2ccccc2)C(NC(=O)CN)C(OCc2ccc3ccccc3c2)C1O (stereo not drawn) [compound 225]	− (“−” indicates less than 50% inhibition at 10 μM)	− (“−” indicates less than 50% inhibition at 10 μM)	− (“−” indicates less than 50% inhibition at 10 μM)	− (“−” indicates less than 50% inhibition at 10 μM)	− (“−” indicates less than 50% inhibition at 10 μM)	− (“−” indicates less than 50% inhibition at 10 μM)	− (“−” indicates less than 50% inhibition at 10 μM)	+ (“+” indicates greater than 50% inhibition at 10 μM)	− (“−” indicates less than 50% inhibition at 10 μM)	− (“−” indicates less than 50% inhibition at 10 μM)	− (“−” indicates less than 50% inhibition at 10 μM)
COCC1OC(OCCc2ccccc2)C(NC(=O)CNC(=N)N)C(OCc2ccc3ccccc3c2)C1O (stereo not drawn) [compound 226]	− (“−” indicates less than 50% inhibition at 10 μM)	− (“−” indicates less than 50% inhibition at 10 μM)	+ (“+” indicates greater than 50% inhibition at 10 μM)	+ (“+” indicates greater than 50% inhibition at 10 μM)	+ (“+” indicates greater than 50% inhibition at 10 μM)	− (“−” indicates less than 50% inhibition at 10 μM)	− (“−” indicates less than 50% inhibition at 10 μM)	+ (“+” indicates greater than 50% inhibition at 10 μM)	− (“−” indicates less than 50% inhibition at 10 μM)	− (“−” indicates less than 50% inhibition at 10 μM)	− (“−” indicates less than 50% inhibition at 10 μM)
COCC1OC(OCCc2ccccc2)C(NC(=O)CCN)C(OCc2ccc3ccccc3c2)C1O (stereo not drawn) [compound 227]	− (“−” indicates less than 50% inhibition at 10 μM)	− (“−” indicates less than 50% inhibition at 10 μM)	− (“−” indicates less than 50% inhibition at 10 μM)	− (“−” indicates less than 50% inhibition at 10 μM)	− (“−” indicates less than 50% inhibition at 10 μM)	− (“−” indicates less than 50% inhibition at 10 μM)	− (“−” indicates less than 50% inhibition at 10 μM)	+ (“+” indicates greater than 50% inhibition at 10 μM)	− (“−” indicates less than 50% inhibition at 10 μM)	− (“−” indicates less than 50% inhibition at 10 μM)	− (“−” indicates less than 50% inhibition at 10 μM)
COCC1OC(OCCc2ccccc2)C(NC(=O)CCCN)C(OCc2ccc3ccccc3c2)C1O (stereo not drawn) [compound 228]	− (“−” indicates less than 50% inhibition at 10 μM)	− (“−” indicates less than 50% inhibition at 10 μM)	− (“−” indicates less than 50% inhibition at 10 μM)	− (“−” indicates less than 50% inhibition at 10 μM)	+ (“+” indicates greater than 50% inhibition at 10 μM)	− (“−” indicates less than 50% inhibition at 10 μM)	− (“−” indicates less than 50% inhibition at 10 μM)	+ (“+” indicates greater than 50% inhibition at 10 μM)	− (“−” indicates less than 50% inhibition at 10 μM)	− (“−” indicates less than 50% inhibition at 10 μM)	− (“−” indicates less than 50% inhibition at 10 μM)
